Test results as given in ChEMBL document CHEMBL1201861, “Genomics of Drug Sensitity in Cancer screening data, Wellcome Trust Sanger Institute”.

Key:
Test in all cases: cells
G-401 = type: functional, cell-based, Homo sapiens; conditions: Homo sapiens, G-401
Description: SANGER: Inhibition of human G-401 cell growth in a cell viability assay.

LC4-1 = type: functional, cell-based, Homo sapiens; conditions: Homo sapiens, LC4-1
Description: SANGER: Inhibition of human LC4-1 cell growth in a cell viability assay.

COLO-680N = type: functional, cell-based, Homo sapiens; conditions: Homo sapiens, COLO-680N
Description: SANGER: Inhibition of human COLO-680N cell growth in a cell viability assay.

MDA-MB-415 = type: functional, cell-based, Homo sapiens; conditions: Homo sapiens, MDA-MB-415
RO82-W-1 = type: functional, cell-based, Homo sapiens; conditions: Homo sapiens, RO82-W-1
Description: SANGER: Inhibition of human RO82-W-1 cell growth in a cell viability assay.

HT-3 = type: functional, cell-based, Homo sapiens; conditions: Homo sapiens, HT-3
Description: SANGER: Inhibition of human HT-3 cell growth in a cell viability assay.

MKN-1 = type: functional, cell-based, Homo sapiens; conditions: Homo sapiens, MKN-1
Description: SANGER: Inhibition of human MKN1 cell growth in a cell viability assay.

HT55 = type: functional, cell-based, Homo sapiens; conditions: Homo sapiens, HT55
Description: SANGER: Inhibition of human HT55 cell growth in a cell viability assay.

CWR22R = type: functional, cell-based, Homo sapiens; conditions: Homo sapiens, 22Rv1
Description: SANGER: Inhibition of human 22RV1 cell growth in a cell viability assay.

LK-2 = type: functional, cell-based, Homo sapiens; conditions: Homo sapiens, LK-2
Description: SANGER: Inhibition of human LK-2 cell growth in a cell viability assay.

Daudi = type: functional, cell-based, Homo sapiens; conditions: Homo sapiens, Daudi
Description: SANGER: Inhibition of human Daudi cell growth in a cell viability assay.

SIMA = type: functional, cell-based, Homo sapiens; conditions: Homo sapiens, SIMA
Description: SANGER: Inhibition of human SIMA cell growth in a cell viability assay.

DG-75 = type: functional, cell-based, Homo sapiens; conditions: Homo sapiens, DG-75
Description: SANGER: Inhibition of human DG-75 cell growth in a cell viability assay.

LCLC-103H cell line = type: functional, cell-based, Homo sapiens; conditions: Homo sapiens, LCLC-103H
Description: SANGER: Inhibition of human LCLC-103H cell growth in a cell viability assay.

HSC-3 = type: functional, cell-based, Homo sapiens; conditions: Homo sapiens, HSC-3
Description: SANGER: Inhibition of human HSC-3 cell growth in a cell viability assay.

647-V = type: functional, cell-based, Homo sapiens; conditions: Homo sapiens, 647-V
Description: SANGER: Inhibition of human 647-V cell growth in a cell viability assay.

U2OS = type: functional, cell-based, Homo sapiens, U-2-OS; conditions: Homo sapiens, U2OS
Description: SANGER: Inhibition of human U-2-OS cell growth in a cell viability assay.

SW1990 = type: functional, cell-based, Homo sapiens; conditions: Homo sapiens, SW1990
Description: SANGER: Inhibition of human SW1990 cell growth in a cell viability assay.

H4 = type: functional, cell-based, Homo sapiens; conditions: Homo sapiens, H4
Description: SANGER: Inhibition of human H4 cell growth in a cell viability assay.

RL = type: functional, cell-based, Homo sapiens; conditions: Homo sapiens, RL
Description: SANGER: Inhibition of human RL cell growth in a cell viability assay.

KYSE-70 cell line = type: functional, cell-based, Homo sapiens; conditions: Homo sapiens, KYSE-70
Description: SANGER: Inhibition of human KYSE-70 cell growth in a cell viability assay.

RVH-421 = type: functional, cell-based, Homo sapiens; conditions: Homo sapiens, RVH-421
Description: SANGER: Inhibition of human RVH-421 cell growth in a cell viability assay.

EFO-21 = type: functional, cell-based, Homo sapiens; conditions: Homo sapiens, EFO-21
Description: SANGER: Inhibition of human EFO-21 cell growth in a cell viability assay.

NB1 = type: functional, cell-based, Homo sapiens; conditions: Homo sapiens, NB1
Description: SANGER: Inhibition of human NB1 cell growth in a cell viability assay.

RPMI-6666 = type: functional, cell-based, Homo sapiens; conditions: Homo sapiens, RPMI-6666
Description: SANGER: Inhibition of human RPMI-6666 cell growth in a cell viability assay.

NCI-H1436 = type: functional, cell-based, Homo sapiens; conditions: Homo sapiens, NCI-H1436
Description: SANGER: Inhibition of human NCI-H1436 cell growth in a cell viability assay.

MC-IXC = type: functional, cell-based, Homo sapiens; conditions: Homo sapiens, MC-IXC
Description: SANGER: Inhibition of human MC-IXC cell growth in a cell viability assay.

MEL-JUSO = type: functional, cell-based, Homo sapiens; conditions: Homo sapiens, MEL-JUSO
Description: SANGER: Inhibition of human MEL-JUSO cell growth in a cell viability assay.

A2780 = type: functional, cell-based, Homo sapiens; conditions: Homo sapiens, A2780
Description: SANGER: Inhibition of human A2780 cell growth in a cell viability assay.

CaR-1 = type: functional, cell-based, Homo sapiens; conditions: Homo sapiens, CaR-1
Description: SANGER: Inhibition of human CaR-1 cell growth in a cell viability assay.

HMV-2 cell line = type: functional, cell-based, Homo sapiens; conditions: Homo sapiens, HMV-2
Description: SANGER: Inhibition of human HMV-II cell growth in a cell viability assay.

UACC-812 = type: functional, cell-based, Homo sapiens; conditions: Homo sapiens, UACC-812
Description: SANGER: Inhibition of human UACC-812 cell growth in a cell viability assay.

JEG-3 = type: functional, cell-based, Homo sapiens; conditions: Homo sapiens, JEG-3
Description: SANGER: Inhibition of human JEG-3 cell growth in a cell viability assay.

OVCAR-3 = type: functional, cell-based, Homo sapiens; conditions: Homo sapiens, OVCAR-3
Description: SANGER: Inhibition of human OVCAR-3 cell growth in a cell viability assay.

KP-4 = type: functional, cell-based, Homo sapiens; conditions: Homo sapiens, KP-4
Description: SANGER: Inhibition of human KP-4 cell growth in a cell viability assay.

SNU-449 = type: functional, cell-based, Homo sapiens; conditions: Homo sapiens, SNU-449
Description: SANGER: Inhibition of human SNU-449 cell growth in a cell viability assay.

NCI-H524 = type: functional, cell-based, Homo sapiens; conditions: Homo sapiens, NCI-H524
Description: SANGER: Inhibition of human NCI-H524 cell growth in a cell viability assay.

NCI-H460 = type: functional, cell-based, Homo sapiens; conditions: Homo sapiens, NCI-H460
Description: SANGER: Inhibition of human NCI-H460 cell growth in a cell viability assay.

NCI-H1651 = type: functional, cell-based, Homo sapiens; conditions: Homo sapiens, NCI-H1651
Description: SANGER: Inhibition of human NCI-H1651 cell growth in a cell viability assay.

NCI-H810 = type: functional, cell-based, Homo sapiens; conditions: Homo sapiens, NCI-H810
Description: SANGER: Inhibition of human NCI-H810 cell growth in a cell viability assay.

L-540 = type: functional, cell-based, Homo sapiens; conditions: Homo sapiens, L-540
Description: SANGER: Inhibition of human L-540 cell growth in a cell viability assay.

TALL-1 = type: functional, cell-based, Homo sapiens; conditions: Homo sapiens, TALL-1
Description: SANGER: Inhibition of human TALL-1 cell growth in a cell viability assay.

CAL-62 = type: functional, cell-based, Homo sapiens; conditions: Homo sapiens, CAL-62
Description: SANGER: Inhibition of human CAL-62 cell growth in a cell viability assay.

MG-63 = type: functional, cell-based, Homo sapiens; conditions: Homo sapiens, MG-63
Description: SANGER: Inhibition of human MG-63 cell growth in a cell viability assay.

CPC-N = type: functional, cell-based, Homo sapiens; conditions: Homo sapiens, CPC-N
Description: SANGER: Inhibition of human CPC-N cell growth in a cell viability assay.

OPM-2 = type: functional, cell-based, Homo sapiens; conditions: Homo sapiens, OPM-2
Description: SANGER: Inhibition of human OPM-2 cell growth in a cell viability assay.

NCI-H727 = type: functional, cell-based, Homo sapiens; conditions: Homo sapiens, NCI-H727
Description: SANGER: Inhibition of human NCI-H727 cell growth in a cell viability assay.

## CCC/C=C/C=C/C(=O)O[C@H]1/C(=C/C(=O)OC)C[C@H]2C[C@H]([C@@H](C)O)OC(=O)C[C@H](O)C[C@@H]3C[C@H](OC(C)=O)C(C)(C)[C@](O)(C[C@@H]4C/C(=C/C(=O)OC)C[C@H](/C=C/C(C)(C)[C@]1(O)O2)O4)O3 [BRYOSTATIN 1]
G-401
  IC50: > 8 nM
LC4-1
  IC50: > 8 nM
COLO-680N
  IC50: > 8 nM
MDA-MB-415
  IC50: > 8 nM
RO82-W-1
  IC50: > 8 nM
HT-3
  IC50: > 8 nM
MKN-1
  IC50: > 8 nM
HT55
  IC50: > 8 nM
CWR22R
  IC50: > 8 nM
LK-2
  IC50: > 8 nM
Daudi
  IC50: > 8 nM
SIMA
  IC50: > 8 nM
DG-75
  IC50: > 8 nM
LCLC-103H cell line
  IC50: > 8 nM
HSC-3
  IC50: > 8 nM
647-V
  IC50: > 8 nM
U2OS
  IC50: > 8 nM
SW1990
  IC50: > 8 nM
H4
  IC50: > 8 nM
RL
  IC50: > 8 nM
KYSE-70 cell line
  IC50: > 8 nM
RVH-421
  IC50: > 8 nM
EFO-21
  IC50: > 8 nM
NB1
  IC50: > 8 nM
RPMI-6666
  IC50: > 8 nM
NCI-H1436
  IC50: > 8 nM
MC-IXC
  IC50: > 8 nM
MEL-JUSO
  IC50: > 8 nM
A2780
  IC50: > 8 nM
CaR-1
  IC50: > 8 nM
HMV-2 cell line
  IC50: 2.26 nM
UACC-812
  IC50: > 8 nM
JEG-3
  IC50: > 8 nM
OVCAR-3
  IC50: > 8 nM
KP-4
  IC50: > 8 nM
SNU-449
  IC50: > 8 nM
NCI-H524
  IC50: > 8 nM
NCI-H460
  IC50: > 8 nM
NCI-H1651
  IC50: > 8 nM
NCI-H810
  IC50: > 8 nM
L-540
  IC50: > 8 nM
TALL-1
  IC50: > 8 nM
CAL-62
  IC50: > 8 nM
MG-63
  IC50: > 8 nM
CPC-N
  IC50: > 8 nM
OPM-2
  IC50: > 8 nM
NCI-H727
  IC50: > 8 nM

## COc1cccc2c1C(=O)c1c(O)c3c(c(O)c1C2=O)C[C@@](O)(C(=O)CO)C[C@@H]3O[C@H]1C[C@H](N)[C@H](O)[C@H](C)O1 [DOXORUBICIN]
G-401
  IC50: 30.2 nM
LC4-1
  IC50: 241 nM
COLO-680N
  IC50: 33.9 nM
MDA-MB-415
  IC50: > 1020 nM
RO82-W-1
  IC50: > 1020 nM
HT-3
  IC50: 133 nM
MKN-1
  IC50: 9.86 nM
HT55
  IC50: > 1020 nM
CWR22R
  IC50: 21.2 nM
LK-2
  IC50: 581 nM
Daudi
  IC50: 69 nM
SIMA
  IC50: 382 nM
DG-75
  IC50: 666 nM
LCLC-103H cell line
  IC50: 20.5 nM
HSC-3
  IC50: 74.5 nM
647-V
  IC50: 18.8 nM
U2OS
  IC50: > 1020 nM
SW1990
  IC50: 202 nM
H4
  IC50: 71.6 nM
RL
  IC50: > 1020 nM
KYSE-70 cell line
  IC50: 225 nM
RVH-421
  IC50: 169 nM
EFO-21
  IC50: 362 nM
NB1
  IC50: 46 nM
RPMI-6666
  IC50: 66 nM
NCI-H1436
  IC50: > 1020 nM
MC-IXC
  IC50: 67.9 nM
MEL-JUSO
  IC50: 14.5 nM
A2780
  IC50: 68.8 nM
CaR-1
  IC50: > 1020 nM
HMV-2 cell line
  IC50: 22.6 nM
UACC-812
  IC50: > 1020 nM
JEG-3
  IC50: 95.1 nM
OVCAR-3
  IC50: 470 nM
KP-4
  IC50: 40.8 nM
SNU-449
  IC50: 548 nM
NCI-H524
  IC50: > 1020 nM
NCI-H460
  IC50: 12.7 nM
NCI-H1651
  IC50: 11.8 nM
NCI-H810
  IC50: 18.8 nM
L-540
  IC50: 213 nM
TALL-1
  IC50: > 1020 nM
CAL-62
  IC50: 32.8 nM
MG-63
  IC50: 22.1 nM
CPC-N
  IC50: 68.4 nM
OPM-2
  IC50: 502 nM
NCI-H727
  IC50: 22.8 nM
